Source: ChEMBL document CHEMBL1133530, “Classification of multidrug-resistance reversal agents using structure-based descriptors and linear discriminant analysis” (2000)

Species on record: Mus musculus
Assay: Tested for the multidrug resistance reversal activity against P388 murine leukemia cell line, activity is expressed as RF(ED50 with no adriamycin (ADR)/ED50 with 200 nM ADR)
Type: functional

Structure (SMILES)	RF
CCN(CC)CCOC1CCC2(C)C(=CCC3C4CCC(=O)C4(C)CCC32)C1 (stereo not drawn)	60
COc1ccc(CCC2NCCc3cc(OC)c(OC)cc32)cc1 (stereo not drawn)	100
O=C(OCCN1CCN(CCOC(=O)C(c2ccccc2)c2ccccc2)CC1)C(c1ccccc1)c1ccccc1	300
CCCCc1oc2ccccc2c1C(=O)c1cc(I)c(OCCN(CC)CC)c(I)c1 [AMIODARONE]	5.6
COc1ccc(CCNCC(O)COc2cccc(C)c2)cc1OC (stereo not drawn) [BEVANTOLOL]	50
NCCc1ccccc1 [PHENETHYLAMINE]	1
COc1ccc(CCN(C)CCCC(C#N)(c2ccc(OC)c(OC)c2)C(C)C)cc1OC (stereo not drawn) [VERAPAMIL]	100
OCCN1CCN(CC/C=C2/c3ccccc3Sc3ccc(Cl)cc32)CC1 [ZUCLOPENTHIXOL]	15
